Assay results as given in article PMC6270921, “Study on the Cytotoxic Activity of Drimane Sesquiterpenes and Nordrimane Compounds against Cancer Cell Lines” (Molecules, 2014).

Key:
Experiment in all cases: Caspase 3 activity assay (colorimetric, DEVD-pNA)
Assay type in all cases: cell-based, human
[1] = tested on: caspase-3 in CoN cells; conditions: compound 50 μM, control 1% ethanol
Text: (§1) Depletion of mitochondrial membrane potential leads to the release of apoptogenic factors, such as cytochrome c in the apoptotic cascade, and activation of caspases. Then we investigated the effects of our compounds on caspase activity. We focused on caspase-3, which is a main executor of apoptosis playing a central role in its biological processing. We analyzed the effect of treatment with the compound 1, 8 and 12 on caspase-3 activation in normal and cancer cells. […] Compound 1 increased the activity of caspase-3 by 3.4 ± 0.1, 1.4 ± 0.1 and 2.8 ± 0.1 times versus control cells in MCF-7 (black), CoN (white) and PC-3 (gray) cells, respectively. Compound 8 increased the activity of caspase 3 by 2.4 ± 0.1, 1.3 ± 0.2 and 2.7 ± 0.1 times versus control cells in MCF-7 (black), CoN (white) and PC-3 (gray) cells, respectively.
(§2) Caspase activity was measured using a colorimetric assay. Briefly, the cells exposed to compounds were collected by centrifugation at 1000 rpm and lysed with lysis buffer (1% Triton X-100, 0.32 M sucrose, 5 mM EDTA, 10 mM Tris–HCl, pH 8.0, 2 mM dithiothreitol, 1 mM PMSF, […] aprotinin, 1 mg/mL leupeptin). Thereafter, the lysates were transferred to wells in a 96-well microplate and were incubated with DEVD-pNA (final concentration 200 μM) specific for caspase-3/7, at 37 °C for 1 h. The intensity of the developed color was read at 405 nm in a microplate reader (SpectraMax, Winooski, VT, USA). The results are expressed as percentages of the control level.

[2] = tested on: caspase-3 in MCF-7 cells; conditions: MCF-7, compound 50 μM; control 1% ethanol
Text: as §1, §2

[3] = tested on: caspase-3 in PC-3 cells; conditions: PC-3, compound 50 μM; control 1% ethanol
Text: as §1, §2

CC1(C)CCC[C@]2(C)[C@@H](C=O)C(C=O)=CC[C@@H]12 [Compound 1, polygodial]
increase of caspase-3 activity [1]: 1.4 ± 0.1 times versus control cells
increase of caspase-3 activity [2]: 3.4 ± 0.1 times versus control cells
increase of caspase-3 activity [3]: 2.8 ± 0.1 times versus control cells
